Measured values published in BigSolDB 2.1.

O=C(N[C@@H](Cc1ccc(O)cc1)C(=O)O)OCC1c2ccccc2-c2ccccc21
solubility (mole fraction)
Conditions	293.15 K	298.15 K	303.15 K	308.15 K	313.15 K	318.15 K	323.15 K	328.15 K	333.15 K
in acetone	0.0683	0.0723	0.077	0.078	0.0824	0.0901	0.0959	–	–
in acetonitrile	0.00233	0.00272	0.00326	0.00382	0.00432	0.00504	0.00637	0.00781	0.00884
in dimethyl carbonate	0.00346	0.00367	0.0044	0.00477	0.00583	0.00638	0.00747	0.00918	0.0109
in ethyl acetate	0.0129	0.0135	0.014	0.0152	0.0164	0.019	0.0203	0.0222	0.0254
in isobutanol	0.00543	0.00685	0.00823	0.00992	0.0123	0.0146	0.0175	0.0219	0.0279
in isopropanol	0.0147	0.0179	0.0213	0.027	0.0307	0.0385	0.043	0.0546	0.0691
in methyl acetate	0.0155	0.0163	0.0173	0.0177	0.0209	0.0219	0.0249	–	–
in n-butanol	0.0129	0.0151	0.0178	0.0198	0.0231	0.0281	0.0319	0.0385	0.0463
in n-butyl acetate	0.00611	0.00636	0.00688	0.00765	0.00862	0.00933	0.00976	0.0118	0.0124
in n-pentanol	0.0111	0.0121	0.0144	0.0168	0.02	0.0231	0.0244	0.0324	0.0388
in n-propyl acetate	0.00762	0.00799	0.00861	0.00951	0.0104	0.0108	0.0126	0.0138	0.015
in sec-butanol	0.0146	0.018	0.0215	0.0263	0.0323	0.0388	0.0454	0.0538	0.0639
